In ChEMBL document CHEMBL1201862, “PubChem BioAssay data set” (2004):
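48-hour exposure; five concentrations; linearly interpolated endpoints. GI50 is the concentration that inhibits growth by half.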 Calls of active or inactive are those of the source. Cut-off read from the data, not from the text of the source: active = GI50 up to about 1.1 µM and inactive = higher.

How the values were obtained:
Assay in all cases: NCI anticancer screen, dose series, 48 h
[1] = tested on: SF-268
[2] = tested on: EKVX
[3] = tested on: SK-MEL-5
[4] = tested on: U-251
[5] = tested on: SK-MEL-28
[6] = tested on: LOX IMVI
[7] = tested on: SK-OV-3
[8] = tested on: HOP-92
[9] = tested on: K562
[10] = tested on: SF-539
[11] = tested on: OVCAR-5
[12] = tested on: KM12
[13] = tested on: Malme-3M
[14] = tested on: NCI-H226

Measured: GI50

Cn1c2c(c3ccccc31)CCN(CCN1CCN(c3ccccc3)CC1)C2=O
inactive: [1] > 100 µM | [2] > 100 µM | [3] 61.1 µM | [4] > 100 µM | [5] > 100 µM | [6] > 100 µM | [7] > 100 µM | [8] 31.2 µM | [9] > 100 µM | [10] 41.3 µM

C=C1CC(C/C=C(\C)CC2CC(=C)C(=O)O2)OC1=O (configuration not stated)
inactive: [1] > 100 µM | [11] > 100 µM | [2] > 100 µM | [12] > 100 µM | [3] > 100 µM | [4] > 100 µM | [5] > 100 µM | [6] > 100 µM | [7] > 100 µM | [8] > 100 µM | [13] > 100 µM | [9] > 100 µM | [10] > 100 µM

c1ccc(SC2CCSc3ccccc3C2Sc2ccccc2)cc1 (configuration not stated)
inactive: [1] > 100 µM | [2] > 100 µM | [12] 56.1 µM | [3] 20.9 µM | [4] > 100 µM | [6] > 100 µM | [7] > 10 µM | [14] > 100 µM | [8] 18.8 µM | [9] > 100 µM | [10] > 100 µM

CC(C)(C)C[P+](C)(C)c1ccccc1
inactive: [1] > 100 µM | [11] 76 µM | [2] > 100 µM | [12] > 100 µM | [3] > 100 µM | [4] > 100 µM | [5] > 100 µM | [6] > 100 µM | [7] > 100 µM | [14] > 100 µM | [8] > 100 µM | [13] > 100 µM | [9] 34.4 µM | [10] > 100 µM

NS(=O)(=O)c1ccc(NC(=O)CC(=O)Nc2ccc(S(N)(=O)=O)cc2)cc1
inactive: [1] > 100 µM | [11] > 100 µM | [2] > 100 µM | [3] > 100 µM | [4] > 100 µM | [5] > 100 µM | [6] > 100 µM | [7] > 100 µM | [14] > 100 µM | [8] > 100 µM | [13] > 100 µM | [9] > 100 µM | [10] > 100 µM

CCN(CC)CC(=O)Nc1ccc2c(c1)C(=O)c1ccc(NC(=O)CN(CC)CC)cc1C2=O
inactive: [1] 23.1 µM | [11] > 100 µM | [2] 89.3 µM | [12] 22.3 µM | [3] 21.2 µM | [4] 21.6 µM | [5] 53.2 µM | [6] 14.7 µM | [7] 22.9 µM | [8] 85.3 µM | [9] 24.7 µM | [10] 16.3 µM

CCOC(=O)C1=C(C(=O)OCC)C2(c3ccccc3)N(O1)c1ccccc1C2(C)C (configuration not stated)
inactive: [1] 31.2 µM | [11] 99.3 µM | [2] 45.4 µM | [12] 58.1 µM | [3] 56.4 µM | [4] 34 µM | [5] 44.6 µM | [7] 30.1 µM | [14] 32.4 µM | [13] 52.2 µM | [9] 42.7 µM | [10] 43.5 µM

O=C1C2c3[nH]c4ccccc4c3C3CCC(c4ccccc4)CC3C2C(=O)N1c1ccccc1 (configuration not stated)
inactive: [1] > 100 µM | [11] > 100 µM | [2] > 100 µM | [12] > 100 µM | [3] > 100 µM | [4] > 100 µM | [5] > 100 µM | [6] > 100 µM | [7] > 100 µM | [14] > 100 µM | [13] 36.8 µM | [9] 55.1 µM | [10] 97.7 µM

COc1cc(CNc2nc3c(N)cc(C(F)(F)F)cc3nc2-c2ccccc2)cc(OC)c1OC
inactive: [1] 50.8 µM | [11] 37.4 µM | [2] 3.41 µM | [12] 18 µM | [3] 21.3 µM | [4] 63.8 µM | [5] 53.5 µM | [6] 18.5 µM | [7] > 10 µM | [14] 50.2 µM | [8] 22.8 µM | [13] 40 µM | [9] 12.1 µM | [10] > 10 µM

O=C(CCc1nnc(S)[nH]1)Nc1ccc(Cl)c(Cl)c1
inactive: [1] 42.8 µM | [11] 33.8 µM | [2] > 100 µM | [12] 21.9 µM | [3] 14.1 µM | [4] 99.5 µM | [5] 71.6 µM | [7] > 100 µM | [14] > 100 µM | [8] 53.2 µM | [13] > 100 µM | [9] 9.1 µM | [10] 62.5 µM

O=C1NC(=O)C(C(=O)C(=O)Nc2ccc(Br)cc2)C(=O)N1
inactive: [1] > 100 µM | [2] > 100 µM | [3] > 100 µM | [4] > 100 µM | [5] > 100 µM | [6] > 100 µM | [7] > 100 µM | [14] > 100 µM | [8] > 100 µM | [13] > 100 µM | [9] > 100 µM | [10] > 100 µM
